Data reported in patent publication US20090227450A1, “Triazole-Based Fungicidal Mixtures” (BASF Aktiengesellschaft, priority 2005, published 2009).

System: Botrytis cinerea
Test: Activity against the gray mold pathogen Botrytis cinerea in the microtiter test (Botrci)
Type: cell-based
Details: microtiter plate, 405 nm, day 7 after inoculation
Description: The expected efficacies of active compound combinations were determined using Colby's formula (Colby, S. R. “Calculating synergistic and antagonistic responses of herbicide combinations”, Weeds, 15, 20-22, 1967) and compared with the observed efficacies.
E=x+y−x·y/100 • E expected efficacy, expressed in % of the untreated control, when using the mixture of the active compounds A and B at the concentrations a and b • x efficacy, expressed in % of the untreated control, when using the active compound A at the concentration a • y efficacy, expressed in % of the untreated control, when using the active compound B at the concentration b
The active compounds were formulated separately as a stock solution having a concentration of 10 000 ppm in DMSO.
The active compound epoxiconazole was used as a commercial formulation.
The stock solution is pipetted onto a microtiter plate (MTP) and diluted to the stated active compound concentration using a malt-based aqueous nutrient medium for fungi. An aqueous spore suspension of Botrytis cinerea was then added. The plates were placed in a water vapor-saturated chamber at temperatures of 18° C. Using an absorption photometer, the MTPs were measured at 405 nm on day 7 after the inoculation. The measured parameters were compared to the growth of the active compound-free control variant and the fungus- and active compound-free blank value to determine the relative growth in % of the pathogens in the individual active compounds.
The visually determined values for the percentage of infected leaf area were initially converted into a mean value and then converted into efficacies in % of the untreated control. An efficacy of 0 means the same degree of infection as in the untreated control, an efficacy of 100 means 0% infection. The expected efficacies for active compound combinations were determined using Colby's formula (Colby, S. R. (Calculating synergistic and antagonistic responses of herbicide combinations”, Weeds, 15, pp. 20-22, 1967) and compared to the observed efficacies.

SMILES	Observed effect (%) (conc. 0.004 ppm)	Observed effect (%) (conc. 0.25 ppm)	Observed effect (%) (conc. 0.016 ppm)	Observed effect (%) (conc. 0.063 ppm)
CO/C=C(/C(=O)OC)c1ccccc1COc1cccc(C(F)(F)F)n1 [Picoxystrobin, picoxystrobin]	0%	3%	–	–
Fc1ccc(C2(Cn3cncn3)OC2c2ccccc2Cl)cc1 (stereo not shown) [Epoxiconazole, epoxiconazole]	–	–	15%	48%
